Publication PMC11189555, “Aryl amino acetamides prevent Plasmodium falciparum ring development via targeting the lipid-transfer protein PfSTART1” (Nature Communications, 2024)
pEC50: −log10 of the molar value. “And” between values parts separate entries of the source, which are not always exact repeats. Identical values can stand only once. Like-named read-outs stand apart in the source and are kept apart here.

Assays:
CR-WT parasites = test: Growth inhibition assay (72 h, LDH activity); assay type: cell-based, Plasmodium falciparum; details: CR-WT; for inhibition at 0.1 µM / inhibition at up to 0.1 µM / pEC50: Plasmodium falciparum; for inhibition at 0.1 µM / inhibition at up to 0.1 µM: read-out: NORMALISED (growth inhibition, LDH absorbance); for pEC50: read-out: EC50 W-991 (95% confidence interval), Fig 4C, n = 3
Experimental: Parasite growth assays with inhibitory compounds were performed as per[11] and are fully described in the Supplementary Information.
Molecular biology and transfection of P. falciparum: CRISPR method.
The full 5’ homology region of pfstart1 (either WT, N309K or N330K) was amplified from pPfSTART1-HA-2A-Neo-glmS with the same 5’ BglII primer and a new 3’ primer that replaced with PstI with SpeI and introduced a stop codon. The PCR product was then digested with BglII and SpeI and inserted into similarly digested p1.2 parasite vector2. The p1.2 vector had previously been inserted with a homology region amplified from the 3’ end of the pfstart1 gene (3’HB) to form a second homology block for double recombination. The primers used to amplify 3’HB are listed primers listed in […]
60 μg of p1.2-PfSTART1(WT/N309K/N330K) plasmid was linearised with KasI, precipitated in 3 M sodium acetate and ethanol (70% final concentration) overnight at -20°C. The DNA pellet was washed in cold 70% ethanol and resuspended in cytomix 3.
50 μ M of crRNA ( Table S 2) and 50 μM of tracRNA (Integrated DNA Technologies) were allowed to form a duplex (5 min at 95°C), and Cas9 enzyme (Integrated DNA Technologies) was added, and incubated for 20 min at room temperature 4. This crRNA -tracRNA -Cas9 mix was added to each DNA preparation and transfected to 3D7 ring parasites using the Bio -Rad Gene Pulser at 310 V and 950 μF.
Parasites containing the transfected DNA were selected using 2.5 nM WR99210 (Jacobus). Parasites lines were cloned using limiting dilution. Correct integration was tested by PCR (using primer START_5’UTR.F and START_Int.R1 , Table S 2), and sequencing was done using the primers START_3F and START_Int.R2 (Table S 2).
Growth inhibition assays. Synchronised ring-stage parasites (0.3-0.6% parasitemia, 2% haematocrit) were grown for 72 h in a serial-dilution of the compound under […]
(§1) and compound 4. Note that M-833 was first purchased from MolPort (MolPort -002-267-916) then made in-house at WEHI: the differences observed in EC50s across experiments are attributed to the different batches of M -833. For some experiments, 0, 0.25 or 2.5 mM of glucosamine (GlcN) was also added. Experiments were set up in technical duplicates or triplicates. Following a freeze -thaw cycle, lactate dehydrogenase (LDH) activity was assessed as an indicator of parasite growt h 5. 30 μL of parasite culture was incubated for 30 min in the dark with 75 μL Malstat mixture (0.1 M Tris pH 9.0, 20 g/L lactic acid, pH 7.5, 0.2% Triton-X100, 0.5 g/L acetylpyridine adenine dinucleotide (APAD, Sigma), 200 μg/mL nitroblue tetrazolium (NBT; Sigma), 1 μg/mL phenozine ethosulfate (PES; Sigma)). Absorbance was then measured at 650 nm, transformed using the formula below, plotted against the logarithm of the concentrations, and a non-linear regression (log(inhibitor) vs. response, variable slope) was calculated using GraphPad Prism to assess the half-inhibitory […]
(§2) Growth inhibition % = (1 − average(sample)− average(uRBC)) ∗ 100 […]
(§3) The DMSO samples were also used to assess growth of parasite in the presence of 0.25 and 2.5 mM GlcN (normalised by DMSO in 0 mM GlcN). […]

[1] = system: M-833 resistant parasite populations (PopC, PopD, PopE); test: Growth inhibition of M-833 resistant populations (LDH); assay type: cell-based, Plasmodium falciparum; details: Fig 4B
Experimental: After three cycles of drug treatment, three parasite populations were identified as less susceptible to the compound and their growth in serially diluted M-833 after 72 h was measured by lactate dehydrogenase (LDH) activity assays. […] The two most resistant populations (PopD and PopE) were further cloned out by limiting dilution. […] To identify the target of M-833, genomic DNA was extracted from the clonal lines of PopD and PopE and subjected to whole genome sequencing using MinION technology and compared to clonal 3D7 parental parasites. This identified 14 non-synonymous single nucleotide polymorphisms (SNP) across nine different genes when compared to the 3D7 parental strain (Supplementary Data 1). The two genes that had SNPs present across all resistant clones were the P. falciparum liver stage antigen 1 gene (PF3D7_1036400) and P. falciparum stAR-related lipid transfer protein (PF3D7_0104200, PFA0210c; pfstart1). The former is not expressed in the blood stage[19]–[21] and comprises a large central repeat region which is problematic for variant calling. […] Collectively, all the identified mutations (N309K, I224F, N330K) were found within the central conserved START domain and predicted to face the lipid-binding pocket (Fig. 1C).
The drug was then removed, and parasites were allowed to recover. Another cycle of drug treatment (3 μM M-833) was then resumed. The resistant lines were cloned out by limiting dilution (diluting the culture into a 96-well plate to achieve an average of ~0.3 parasites per well), prior to growth inhibition assays and genomic DNA (gDNA) extraction (DNeasy Blood and Tissue kit (Qiagen)[18].
Parasite growth assays with inhibitory compounds were performed as per[11] and are fully described in the Supplementary Information. […]
as §1, §2, §3

[2] = 0.25 mM GlcN, dilution point 1 of 10, starting concentration 100 nM
[3] = 2.5 mM GlcN, dilution point 1 of 10, starting concentration 100 nM
[4] = 2.5 mM GlcN, dilution point 2 of 10 from starting concentration 100 nM
[5] = 2.5 mM GlcN, dilution point 3 of 10 from starting concentration 100 nM
[6] = 2.5 mM GlcN, dilution point 4 of 10 from starting concentration 100 nM
[7] = 2.5 mM GlcN, dilution point 6 of 10 from starting concentration 100 nM

CC(C)(Nc1ccc(Cl)c(S(=O)(=O)N2CCOCC2)c1)C(=O)Nc1ccc(F)c(Cl)c1 [W-991]
NORMALISED (growth inhibition, LDH absorbance vs DMSO and uRBC) (CR-WT parasites; 0 mM GlcN, W991 at 1.23457 nM): 49.5102 and 70.9626 | NORMALISED (growth inhibition, LDH absorbance vs DMSO and uRBC) (CR-WT parasites; 0 mM GlcN, W991 at 3.7037 nM): 86.3119 and 94.5107 | NORMALISED (growth inhibition, LDH absorbance vs DMSO and uRBC) (CR-WT parasites; 0 mM GlcN, W991 at 11.1111 nM): 91.2364 and 97.6134 | NORMALISED (growth inhibition, LDH absorbance vs DMSO and uRBC) (CR-WT parasites; 0 mM GlcN, W991 at 33.3333 nM): 92.4279 and 96.4200 | NORMALISED (growth inhibition, LDH absorbance vs DMSO and uRBC) (CR-WT parasites; 0 mM GlcN, W991 at 100 nM): 91.9778 and 98.0111 | NORMALISED (growth inhibition, LDH absorbance) (CR-WT parasites; [2]): 97.4106 | NORMALISED (growth inhibition, LDH absorbance) (CR-WT parasites; 0.25 mM GlcN, dilution point 2 of 10 from starting concentration 100 nM): 93.8101 | NORMALISED (growth inhibition, LDH absorbance) (CR-WT parasites; 0.25 mM GlcN, dilution point 3 of 10 from starting concentration 100 nM): 94.0567 | NORMALISED (growth inhibition, LDH absorbance) (CR-WT parasites; 0.25 mM GlcN, dilution point 4 of 10 from starting concentration 100 nM): 92.7990 | NORMALISED (growth inhibition, LDH absorbance) (CR-WT parasites; 0.25 mM GlcN, dilution point 5 of 10 from starting concentration 100 nM): 69.6729 and 71.5413 | NORMALISED (growth inhibition, LDH absorbance) (CR-WT parasites; 0.25 mM GlcN, dilution point 6 of 10 from starting concentration 100 nM): 30.2387 and 29.5808 | NORMALISED (growth inhibition, LDH absorbance) (CR-WT parasites; [3]): 92.5403 | NORMALISED (growth inhibition, LDH absorbance) (CR-WT parasites; [4]): 92.2581 | NORMALISED (growth inhibition, LDH absorbance) (CR-WT parasites; [5]): 92.0699 | NORMALISED (growth inhibition, LDH absorbance) (CR-WT parasites; [6]): 91.3306 | NORMALISED (growth inhibition, LDH absorbance) (CR-WT parasites; 2.5 mM GlcN, dilution point 5 of 10 from starting concentration 100 nM): 90.4301 | NORMALISED (growth inhibition, LDH absorbance) (CR-WT parasites; [7]): 75.1747 | NORMALISED (growth inhibition, LDH absorbance) (CR-WT parasites; 2.5 mM GlcN, dilution point 7 of 10 from starting concentration 100 nM): 66.8125 and 50.5511 | NORMALISED (growth inhibition, LDH absorbance) (CR-WT parasites; 2.5 mM GlcN, dilution point 8 of 10 from starting concentration 100 nM): 47.5123 and 39.2070 | NORMALISED (growth inhibition, LDH absorbance) (CR-WT parasites; 2.5 mM GlcN, dilution point 9 of 10 from starting concentration 100 nM): 32.6882 and 33.0782 | NORMALISED (growth inhibition, LDH absorbance) (CR-WT parasites; 2.5 mM GlcN, dilution point 10 of 10 from starting concentration 100 nM): 35.7796 and 19.6829 | fold sensitised on PfSTART1 knock-down with GlcN (CR-WT parasites; Fig 4C): 7 fold | inhibition at 0.1 µM (CR-WT parasites; [2]): 93.4% | inhibition at 0.1 µM (CR-WT parasites; [3]): 94.2% | inhibition at up to 0.1 µM (CR-WT parasites; [4]): 91.4% | inhibition at up to 0.1 µM (CR-WT parasites; [5]): 93% | inhibition at up to 0.1 µM (CR-WT parasites; [6]): 91.6% | inhibition at up to 0.1 µM (CR-WT parasites; [7]): 80.3% | pEC50 (CR-WT parasites; 0 mM GlcN): 8.96 | pEC50 (CR-WT parasites; 0.25 mM GlcN): 9.14 | pEC50 (CR-WT parasites; 2.5 mM GlcN): 9.81

O=C(CNc1ccc(Cl)c(S(=O)(=O)N2CCOCC2)c1)Nc1ccc(F)c(Cl)c1 [compound 2, reference compound]
activity against M-833-resistant populations [1]: cross-resistant
